Measured values: patent US6174858A, “Conjugates useful in the treatment of prostate cancer” (Merck & Co., Inc., priority 1998, dated 2001)
Where two headings read alike, the source gives them in different places.

Tests used:
[1] = tested on: LNCaP prostate tumor cells; assay: In vitro cytotoxicity, Alamar Blue assay, LNCaP cell kill; assay type: cell-based; settings: 72 HRS
Experimental: (§1) In vitro Assay of Cytotoxicity of Peptidyl Derivatives of Vinca Drugs
(§2) Specifically, cell cultures of LNCap prostate tumor cells, Colo32ODM cells (designated C320) or T47D cells in 96 well plates was diluted with medium containing various concentrations of a given conjugate (final plate well volume of 200 μl). […] The cells were incubated for 3 days at 37° C., 20 μl of Alamar Blue is added to the assay well. The cells were further incubated and the assay plates were read on a EL-310 ELISA reader at the dual wavelengths of 570 and 600 nm at 4 and 7 hours after addition of Alamar Blue. Relative percentage viability at the various concentration of conjugate tested was then calculated versus control (no conjugate) cultures and an EC50 was determined. Unless otherwise indicated, the acetate salt of the conjugate was tested.

[2] = target: T1, free PSA (York PSA) (Homo sapiens, UniProt P07288); assay: Recognition of oligopeptide-vinca drug conjugates by free PSA (time to 50% cleavage, HPLC); assay type: biochemical; settings: for Time to 50% Substrate Cleavage by York PSA: conjugate to PSA molar ratio 100 to 1, pH 7.4
T1 construct: purchased York ('York PSA')
Experimental: The reaction was quenched after various reaction times by the addition of trifluoroacetic acid (TFA) to a final 1% (volume/volume). Alternatively the reaction is quenched with 10 mM ZnCl2. The quenched reaction was analyzed by HPLC on a reversed-phase C18 column using an aqueous 0.1%TFA/acetonitrile gradient. The amount of time (in minutes) required for 50% cleavage of the noted oligopeptide-cytotoxic agent conjugates with enzymatically active free PSA were then calculated.

[3] = tested on: Colo320DM cells; assay: In vitro cytotoxicity, Alamar Blue assay, Colo320DM control cell line (does not express free PSA); assay type: cell-based; settings: 72 HRS
Experimental: as §1
as §2, with “The cytotoxicities of the cleaveable oligopeptide-vinca drug conjugates, prepared as described in Example 3, against a line of cells which is known to be killed by unmodified vinca drug was assessed with an Alamar Blue assay. Specifically,” for “Specifically,”

[4] = read-out: LNCaP Cell Kill in 72 HRS. {48 HRS} EC 50
[5] = second part of Table 2, read-out: LNCaP Cell Kill in 72 HRS. {48 HRS} EC 50
[6] = second part of Table 2, read-out: Colo320DM EC 50

T1 sequence (P07288 25-261): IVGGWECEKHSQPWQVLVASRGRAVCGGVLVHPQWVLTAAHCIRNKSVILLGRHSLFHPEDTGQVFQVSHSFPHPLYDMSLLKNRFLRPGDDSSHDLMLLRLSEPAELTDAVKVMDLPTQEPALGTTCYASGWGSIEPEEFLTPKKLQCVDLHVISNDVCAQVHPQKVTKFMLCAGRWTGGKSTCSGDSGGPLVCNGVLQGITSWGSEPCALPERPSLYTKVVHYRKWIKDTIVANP

| Substance | EC50 [1, 4] | EC50 [1, 5] | Time to 50% Substrate Cleavage by York PSA [2] | Time to 50% Substrate Cleavage by York PSA ([2]; listed as Ac-4-trans-L-HypSSChgQSS-(4-O-Sar)-(dAc)-VIN) | EC50 ([3]; read-out: Colo320DM EC 50) | EC50 [3, 6] | Substrate cleavage by York PSA, 10 X ENZ o/n ([2]; 10 X ENZ, o/n) | Substrate cleavage by York PSA after 1 HOUR ([2]; 1 HOUR) |
| --- | --- | --- | --- | --- | --- | --- | --- | --- |
| 4-O-(Ac-4-trans-L-HypSSChgQSS-Sar)-(dAc)-VIN: peptide-vinca drug conjugate, printed under SEQ ID NO 86 and 105 (XSSXQSSG; N-acetyl; desacetylvinblastine conjugate) | 4.1 µM | 12 µM | 32 min | 15 min | 13 µM | 12 µM | – | – |
| 4-O-[Ac-4-trans-L-HypSSChg(dQ)SSP]-dAc-VIN: peptide-vinca drug conjugate, SEQ ID NO 114 (XSSXXSSP; N-acetyl; D-Gln; desacetylvinblastine conjugate) | – | 12.2 µM | – | – | – | 43.7 µM | 0% | – |
| 4-O-(Ac-4-trans-L-HypSSChgQ-SS-4-trans-L-Hyp)-dAc-VIN: peptide-vinca drug conjugate, SEQ ID NO 95 (XSSXQSSX; N-acetyl; desacetylvinblastine conjugate) | 16.3 µM | – | 13 min | – | 13.1 µM | – | – | – |
| 4-O-[Ac-4-trans-L-HypSSChgQSS-Pip]-dAc-VIN: peptide-vinca drug conjugate, SEQ ID NO 124 (XSSXQSSX; N-acetyl; desacetylvinblastine conjugate) | – | 7.5 µM | 13 min | – | – | 60 µM | – | – |
| Ac-4-trans-L-HypSSChgQS-(4-O-Ala)-(dAc)-VIN: peptide-vinca drug conjugate, SEQ ID NO 103 (XSSXQSA; N-acetyl; desacetylvinblastine conjugate) | – | 12.5 µM | 23 min | – | – | 32.5 µM | – | – |
| 4-O-[Ac--SChgQSS-Sar]-dAc-VIN: peptide-vinca drug conjugate, SEQ ID NO 118 (XXQSSG; N-acetyl; desacetylvinblastine conjugate) | – | 0.8 µM | 39 min | – | – | 3 µM | – | – |
| des-Acetylvinblastine-4-O-(N-Acetyl-4-trans-L-Hyp-Ser-Ser Chg-Gln-Ser-Ser-Pro) ester acetate (XSSXQSSP; N-acetyl; desacetylvinblastine ester; acetate salt) | 3 µM | – | 17 min | – | 12 µM | – | – | – |
| 4-O-(Ac-SChgQ-SSP)-dAc-VIN: peptide-vinca drug conjugate, SEQ ID NO 116 (XXQSSP; N-acetyl; desacetylvinblastine conjugate) | – | 15 µM | 15 min | – | – | 20 µM | – | – |
| 4-O-(Ac-4-trans-L-HypSSChgQSS-(d)-Pro)-(dAc)-VIN: peptide-vinca drug conjugate, SEQ ID NO 87 (XSSXQSSP; N-acetyl; D-Pro; desacetylvinblastine conjugate) | 4.1 µM | – | – | – | 8.1 µM | – | – | 34% |
